In patent US20260137711A1, “COMBINATION THERAPY FOR CANCER” (NATIONAL UNIVERSITY OF IRELAND, GALWAY, priority 2022, published 2026):

Test system: MCF10A EditR cells
Assay: Pooled genome-wide CRISPR/Cas9 screen with XL413 (cell proliferation, sgRNA abundance, MAGeCK beta scores)
Format: cell-based, human
Settings: for XL413 beta score: 1.25 μM XL413, day 0 to day 24; for Differential beta score (Treatment − Control): XL413-treated minus untreated
Method: Supplemental FIG. 1: CRISPR/Cas9 screen: Cell proliferation curves, summary of sgRNA coverage, and genes of interest identified (a-c) Proliferation curves of MCF10A EditR cells expressing sgRNAs from CRISPR library modules I, II and III in the absence (untreated) or presence of 1.25 μM XL413. Data is from three independent counts of each sample ±standard deviation (SD). (d) DNA extracted from samples of the CRISPR/Cas9 screen, which were harvested on day 0 and after 20 or 24 days of growth in the absence (untreated) or presence of 1.25 μM XL413, respectively, was analysed by next generation sequencing. Sequence data was mapped to a CELLECTA genome-wide sgRNA reference library using the MAGeCKFlute pipeline. (d) The table summarises the total and missing number of sgRNAs, the calculated % sgRNA coverage and the number of missing genes.
A genome-wide CRIPSR/Cas9 loss of function screen identifies genes that affect proliferation rate in response to a CDC7 inhibitor In order to identify genes that change the rate of proliferation when DNA synthesis is mildly limited by CDC7 inhibition, we performed a CRISPR/Cas9 genome-wide knockout screen as outlined in FIG. 1a. Briefly, MCF10A EditR cells that stably express Cas9 were transduced with a lentiviral-sgRNA library targeting approximately 19,000 coding genes and then were either untreated or treated with 1.25 μM of selective ATP competitive CDC7 inhibitor, XL413 (Koltun et al., 2012). […] Next generation sequencing was then used to determine sgRNA abundance at day 0, day 20 untreated and day 24 XL413 treated cells. […] CRISPR/Cas9-mediated loss of function of genes involved in supporting proliferation in untreated cells or in response to CDC7 inhibition is expected to result in a decreased relative abundance of the corresponding sgRNAs in the cell population. […] When the genes were ranked according to the magnitude of the effect, CDK8, a gene that expresses a component of the CDK8/CDK19-CCNC-MED12-MED 13 mediator complex kinase-module (Dannappel et al., 2019; Fant and Taatjes, 2019; Menzl et al., 2019), came out as the top hit (FIG. 1b and Table 1, ranked 19012 out of 19012 genes).
MCF10A EditR cells (120×10^6 per module) were transduced with individual modules (Modules I, II and III) in the presence of 5 µg/ml polybrene at a Multiplicity of Infection (MoI) of 0.4 achieving ˜600-fold guide representation. After 24 hours, transduced cells were harvested, replated and selected with puromycin ([…]) for 6 days. Puromycin resistant cells were harvested and a sample of ˜30×10^6 cells taken for analysis by next generation sequencing (NGS) at the start of the screen (day 0). The remaining puromycin resistant cells from each module were cultured independently from each other in untreated and XL413 treated ([…]) experimental branches. Throughout the screen cell proliferation and viability were determined by cell counting on a LunaII automated cell counter (Logos Biosystems) using trypan blue exclusion. Cells were cultured, harvested, reseeded and retreated every 4 days in order to maintain ˜600-fold guide representation. Finally at day 20 for the untreated branch and at day 24 for the XL413-treated branche, cells were harvested and a sample of ˜30×10^6 cells taken for analysis by NGS.
FASTQ files obtained by NGS were analysed using the MAGeCKFlute pipeline (Wang et al., 2019) as outlined below. MAGeCK was used to perform adaptor trimming, mapping of trimmed sgRNAs and associated sequencing reads to the CELLECTA sgRNA reference library, and a quality control assessment of the sequencing quality and screen data. Following quality control inspection, sgRNA read count data from the day 0 vs day 20 untreated and day 0 vs day 24 XL413-treated (1.25 μM) conditions were modelled using a negative-binomial distribution by MAGeCK-MLE to calculate a beta score for each targeted gene. Negative control sgRNAs in the CELLECTA library were used by MAGeCK-MLE to normalize the read counts between samples. […]

## Cl.O=c1[nH]c([C@@H]2CCCN2)nc2c1oc1ccc(Cl)cc12 [XL413]
1.25 μM XL413, cells expressing sgRNA library
  cell proliferation over the course of the screen: only mildly suppressed
Gene CCNC targeted by sgRNAs
  XL413 beta score: −1.0759
  Differential beta score (Treatment − Control): −0.3602
Gene CDK8 targeted by sgRNAs
  XL413 beta score: −1.6094
  Differential beta score (Treatment − Control): −1.4391
Gene CDK19 targeted by sgRNAs
  XL413 beta score: −0.2393
  Differential beta score (Treatment − Control): 0.0034
Gene MED12 targeted by sgRNAs
  XL413 beta score: −0.8276
  Differential beta score (Treatment − Control): 0.0928
Gene MED13 targeted by sgRNAs
  XL413 beta score: 0.0939
  Differential beta score (Treatment − Control): 0.0062
Gene RIF1 targeted by sgRNAs
  XL413 beta score: −0.0162
  Differential beta score (Treatment − Control): 0.7442
